Data on 56 molecules can be found in patent US11026943B2, “Aminoquinoline derivatives and uses thereof” (UNIVERSITY OF DELHI, priority 2012, dated 2021).

The nature of the first series: Solubility (solvent listed in compound tables). It is filed as physicochemical. Particulars: solvent named, Table 3.
With `COc1ccc(Nc2nc(NCCNCc3c4ccc(Cl)cc4nc4ccc(OC)cc34)nc(N3CCOCC3)n2)cc1` [ATH 184], the SOLUBILITY entry is listed as “DMSO”.
For the molecule `Cc1cc(N2CCN(c3ccnc4cc(Cl)ccc34)CC2)nc(NC2CCCCC2)n1` [ATH 241], the SOLUBILITY result is “DMSO”.
On to `COc1ccc(Nc2nc(NCCNCc3c4ccc(Cl)cc4nc4ccc(OC)cc34)nc(N3CCCCC3)n2)cc1` [ATH 191], for which the SOLUBILITY entry is “DMSO”.
With `CCN1CCN(c2nc(Cl)cc(NCCNc3ccnc4cc(Cl)ccc34)n2)CC1` [SM 702], the SOLUBILITY result is listed as “DMSO”.
Consider `Cc1cc(NCCCCNc2ccnc3cc(Cl)ccc23)nc(N2CCOCC2)n1` [SM 500], for which the SOLUBILITY result is on record as “DMSO”.
On the same count and under the same terms, the same measure for `Cc1ccccc1Nc1nc(NCCNc2ccnc3cc(Cl)ccc23)nc(Nc2ccccc2C)n1` [SM 144]: “DMSO”; for `Clc1ccc2c(NCCNc3nc(Cl)cc(N4CCCCC4)n3)ccnc2c1` [SM 699]: “DMSO”.
As for `Clc1ccc2c(NCCNc3nc(Cl)cc(N4CCOCC4)n3)ccnc2c1` [SM 700], the SOLUBILITY entry is on record as “DMSO”.
The same measure, in the same setting: the same measure for `Cc1cc(N2CCN(c3ccnc4cc(Cl)ccc34)CC2)nc(N2CCCC2)n1` [ATH 256]: “DMSO”; for `Clc1ccc2c(N3CCN(c4ccnc(N5CCCC5)n4)CC3)ccnc2c1` [ATH 252]: “DMSO”; for `CCN1CCN(c2nc(C)cc(NCCCCNc3ccnc4cc(Cl)ccc34)n2)CC1` [SM 502]: “DMSO”.
Still for that read-out and setting: under `Clc1ccc2c(NCCCNc3cc(Cl)nc(N4CCCCC4)n3)ccnc2c1` [SM 711] stands “DMSO”; under `OCCCCNc1nc(NCCCCNc2ccnc3cc(Cl)ccc23)nc(N2CCCCC2)n1` [SM 375], “DMSO”.
As to `OCCCCNc1nc(NCCNc2ccnc3cc(Cl)ccc23)nc(N2CCCCC2)n1` [SM 373], the SOLUBILITY result was “DMSO”.
`COc1ccc(Nc2nc(NCCNc3c4ccc(Cl)cc4nc4ccc(OC)cc34)nc(N3CCCCC3)n2)cc1` [ATH 189]: the SOLUBILITY result is recorded as “DMSO”.
In the case of `Cc1cc(NCCCCCCNc2ccnc3cc(Cl)ccc23)nc(N2CCOCC2)n1` [SM 506], the SOLUBILITY result was “DMSO”.
With `Clc1ccc2c(NCCNc3ccnc(N4CCCCC4)n3)ccnc2c1` [SM 730], the SOLUBILITY entry is “DMSO”.
The same measure, in the same setting: the same measure for `COc1ccc(Nc2nc(NCCNc3ccnc4cc(Cl)ccc34)nc(N3CCOCC3)n2)cc1` [SM 332]: “DMSO”; for `Cc1cc(NCCCCNc2ccnc3cc(Cl)ccc23)nc(N2CCCCC2)n1` [SM 499]: “DMSO”.
Consider `Clc1ccc2c(NCCNc3nccc(N4CCCCC4)n3)ccnc2c1` [SM 732], for which the SOLUBILITY entry was “DMSO”.
Consider `Cc1cc(Nc2ccc(F)cc2)nc(N2CCN(c3ccnc4cc(Cl)ccc34)CC2)n1` [ATH 247], for which the SOLUBILITY result is reported as “DMSO”.
On the same count and under the same terms, under `Clc1ccc2c(NCCCNc3nccc(N4CCCCC4)n3)ccnc2c1` [SM 724] stands “DMSO”.
As for `Clc1ccc2c(NCCCNc3ccnc(N4CCOCC4)n3)ccnc2c1` [SM 721], the SOLUBILITY result is recorded as “DMSO”.
As to `CN1CCN(c2nc(Cl)cc(NCCCNc3ccnc4cc(Cl)ccc34)n2)CC1` [SM 713], the SOLUBILITY result is reported as “DMSO”.
On the same count and under the same terms, under `OCCCCNc1nc(NCCCNc2ccnc3cc(Cl)ccc23)nc(N2CCOCC2)n1` [SM 361] stands “DMSO”.
For the molecule `Cc1cc(NCCCCNc2ccnc3cc(Cl)ccc23)nc(Cl)n1` [SM 498A], the SOLUBILITY result was “DMSO”.
Regarding `Cc1cc(N2CCN(c3ccnc4cc(Cl)ccc34)CC2)nc(Cl)n1` [ATH 237], the SOLUBILITY entry is recorded as “DMSO”.
On to `COc1cc(Nc2nc(NCCNc3c4ccc(Cl)cc4nc4ccc(OC)cc34)nc(N3CCN(c4ccccc4)CC3)n2)cc(OC)c1` [ATH 170], for which the SOLUBILITY entry was “DMSO”.
As to `Clc1ccc2c(NCCCNc3nc(Cl)cc(Cl)n3)ccnc2c1` [SM 710B], the SOLUBILITY result was “DMSO”.
`Cc1cc(N2CCN(c3ccnc4cc(Cl)ccc34)CC2)nc(N2CCCCC2)n1` [ATH 240]: the SOLUBILITY entry is “DMSO”.
Turning to `Clc1ccc2c(N3CCN(c4ccnc(N5CCCCC5)n4)CC3)ccnc2c1` [ATH 231], the SOLUBILITY result is “DMSO”.
As for `Clc1ccc2c(NCCCCNc3nc(Nc4ccccc4)nc(N4CCOCC4)n3)ccnc2c1` [SM 359], the SOLUBILITY entry is on record as “DMSO”.
As to `OCCCNc1nccc(N2CCN(c3ccnc4cc(Cl)ccc34)CC2)n1` [ATH 255], the SOLUBILITY result is listed as “DMSO”.
Turning to `Cc1cc(NCCCCCCNc2ccnc3cc(Cl)ccc23)nc(N2CCCCC2)n1` [SM 505], the SOLUBILITY result is “DMSO”.
As to `CN1CCN(c2ccnc(NCCNc3ccnc4cc(Cl)ccc34)n2)CC1` [SM 734], the SOLUBILITY entry is listed as “DMSO”.
On to `CN1CCN(c2nccc(NCCCNc3ccnc4cc(Cl)ccc34)n2)CC1` [SM 722], for which the SOLUBILITY entry is “DMSO”.
Still for that read-out and setting: the same measure for `COc1ccc(Nc2cc(C)nc(N3CCN(c4ccnc5cc(Cl)ccc45)CC3)n2)cc1` [ATH 245]: “DMSO”.
On the same count and under the same terms, the same measure for `OCCNc1nc(NCCNc2ccnc3cc(Cl)ccc23)nc(N2CCOCC2)n1` [SM 352]: “DMSO”.
Consider `Clc1ccc2c(NCCNc3ccnc(N4CCOCC4)n3)ccnc2c1` [SM 731], for which the SOLUBILITY result is recorded as “DMSO”.
As for `COc1ccc(Nc2nc(NCCCNc3c4ccc(Cl)cc4nc4ccc(OC)cc34)nc(NC3CCCCC3)n2)cc1` [ATH 201], the SOLUBILITY entry is reported as “DMSO”.
With `Clc1ccc2c(N3CCN(c4nccc(Nc5ccccc5)n4)CC3)ccnc2c1` [ATH 232], the SOLUBILITY result is on record as “DMSO”.
On the same count and under the same terms, the same measure for `Fc1ccc(Nc2nc(NCCCNc3ccnc4cc(Cl)ccc34)nc(N3CCOCC3)n2)cc1` [SM 339]: “DMSO”; for `Clc1ccc2c(NCCCNc3nccc(Cl)n3)ccnc2c1` [SM 719B]: “DMSO”.
For the molecule `COc1ccc(Nc2nc(NCCNc3c4ccc(Cl)cc4nc4ccc(OC)cc34)nc(NC3CCCCC3)n2)cc1` [ATH 200], the SOLUBILITY entry is “DMSO”.
The same measure, in the same setting: the same measure for `Clc1ccc2c(NCCNc3nc(Cl)nc(Nc4ccccc4)n3)ccnc2c1` [SM 136]: “DMSO”.

The series is the same for the next values; noted with them: solvent named, Table 4.
As to `Cc1cc(Nc2ccc(Br)cc2)nc(NCCCNc2ccnc3cc(Cl)ccc23)n1` [DKG850], the SOLUBILITY result is “DMSO”.
Take `Cc1cc(Nc2ccccc2)nc(NCCNc2ccnc3cc(Cl)ccc23)n1` [DKG833]: the SOLUBILITY entry is given as “DMSO”.
For the molecule `Clc1ccc(Nc2ccnc(NCCNc3ccnc4cc(Cl)ccc34)n2)cc1` [DKG813], the SOLUBILITY entry is on record as “DMSO”.
For the molecule `Cc1cc(Nc2ccc(Br)cc2)nc(NCCCCNc2ccnc3cc(Cl)ccc23)n1` [DKG851], the SOLUBILITY entry is “DMSO”.
Turning to `COc1ccc(Nc2ccnc(NCCCCNc3ccnc4cc(Cl)ccc34)n2)cc1` [DKG827], the SOLUBILITY entry is “DMSO”.
Same read-out and setting: the same measure for `Fc1ccc(Nc2ccnc(NCCCNc3ccnc4cc(Cl)ccc34)n2)cc1` [DKG818]: “DMSO”.
As for `Cc1ccc(Nc2ccnc(NCCCCNc3ccnc4cc(Cl)ccc34)n2)cc1` [DKG807], the SOLUBILITY entry was “DMSO”.

Staying with this series, now noted: solvents listed for the compound.
On to `Cc1cc(NCCNc2ccnc3cc(Cl)ccc23)nc(NCCO)n1` [MT1-185], for which the SOLUBILITY result is reported as “MeOH, DMSO”.
Turning to `Cc1cc(NCCCNc2ccnc3cc(Cl)ccc23)nc(NCCO)n1` [MT1-145], the SOLUBILITY entry is reported as “MeOH, DMSO”.
Take `Cc1cc(NCCCCNc2ccnc3cc(Cl)ccc23)nc(NCCCCCCO)n1` [MT1-196]: the SOLUBILITY result is reported as “MeOH, DMSO”.
As to `Cc1cc(NCCNc2ccnc3cc(Cl)ccc23)nc(NCCCO)n1` [MT1-186], the SOLUBILITY entry was “MeOH, DMSO”.
